The text below walks through data of patent publication US9321773B2, “Compounds” (Respivert Ltd, priority 2009, dated 2016).

For orientation: IC50 means the concentration at which inhibition is half-maximal.

One data set addresses recombinant PI3 kinase α (Homo sapiens (Human), UniProt P42336). Briefly: Enzyme Inhibition Assay (HTRF PI3K enzyme assay, TR-FRET). In kind it is biochemical. Particulars: activity range; read-out: PI3 Kinase Inhibition IC50 values at stated Isozyme α. From the text: (§1) PI3 kinases catalyse the phosphorylation of phosphatidylinositol 4,5-biphosphate (PIP2) to phosphatidylinositol 3,4,5-triphosphate (PIP3) in the presence of ATP and Mg^2+ ions. The PIP3 product can be detected by displacement of biotin-PIP3 from energy transfer complexes consisting of europium labelled anti-GST monoclonal antibody, a GST-tagged Pleckstrin homology (PH) domain, biotinylated PIP3 and streptavidin-allophycocyanin (APC) by the time-resolved fluorescence resonance energy transfer (TR-FRET) (HTRF® PI3K enzyme assay, Millipore). […] The PIP3 product formed by PI3K activity displaces biotin-PIP3 from the complex and results in a loss of energy transfer (decreasing signal).
(§2) The compound to be tested was added, at the desired final concentrations, to a mixture of PIP2 substrate and recombinant PI3 kinase α, δ or γ enzymes (Millipore), and the mixture incubated for 2 hr at RT. […] A stopping solution containing biotinylated PIP3 and the detection mix containing the GST tagged GRP1 pleckstrin homology (PH) domain and fluorophores were then added and the mixture was incubated at RT for 15-18 hr, prior to detection in a fluorescence microplate reader (Varioskan® Flash, ThermoFisher Scientific).

The target of another data set is recombinant PI3 kinase γ (Homo sapiens (Human), UniProt P48736). The description is as above. The conditions noted are these: activity range; read-out: PI3 Kinase Inhibition IC50 values at stated Isozyme γ. The class given is biochemical.
Description: as §1, §2

For another data set, the target named is recombinant PI3 kinase δ (Homo sapiens (Human), UniProt O00329). The description is as above. The class given is biochemical. The conditions noted are these: activity range; read-out: PI3 Kinase Inhibition IC50 values at stated Isozyme δ.
Description: as §1, §2

Data set [1] concerns H2O2 induced pAkt in D-U937 cells. Briefly: PI3Kδ Cell Based Assay (H2O2 induced pAkt). The conditions noted are these: Homo sapiens, dU937; activity range; D-U937 cells; read-out: Cellular Activity IC50 values (H2O2 induced pAkt D-U937 Cells). As to the method: As a means of assessing PI3K 6 activation in response to stimuli, the phosphorylation status of the protein, Akt, a downstream product of PI3K6, signaling was determined. Human monocytic cells (U937 cells), were differentiated to macrophage-type cells by incubation with phorbol myristate acetate (PMA; 100 ng/mL) for 48 to 72 hr. […] The cells were washed with buffer (PBS containing 0.1% Triton X-100) and were incubated with blocking solution (1% BSA in PBS) for 1 hr and were then re-washed with buffer and incubated overnight with either anti-pAkt antibody or anti-pan-Akt antibody (both from Cell Signaling Technology). […] This reaction was stopped by addition of 100 μL of 1N H2SO4 solution. […] The ratio of pAkt signal to total Akt signal was used to quantitate the extent of PI3K δ activation. […] The IC50 values were calculated from the concentration-response curves generated by the serial dilutions of the test compounds (Table 3 and Table 4).

Data set [2] has as its system PMA-differentiated U937 cells. Briefly: MTT Assay (cell viability). The conditions noted are these: percentage loss of cell viability; for Cell Viability MTT Assay in D-U937 cells at 4 hr: 4 hr in 5% FCS; for Cell Viability MTT Assay in D-U937 cells at 24 hr: 24 hr in 10% FCS. In kind it is cell-based, Human. As to the method: PMA-differentiated U937 cells were pre-incubated with compound for 4 hr in 5% FCS or 10% FCS for 24 hr. The supernatant was replaced with 200 μL of new media and 10 μL of MTT stock solution (5 mg/ml) added to each well. After 1 hr incubation, the media were removed, 200 μL of DMSO added to each well and the plates were shaken lightly for 1 hr prior to reading the absorbance at 550 nm. The percentage loss of cell viability was calculated for each well relative to vehicle (0.5% DMSO)-treatment (Table 3).

Some results are limits rather than exact numbers.

Sequence of recombinant PI3 kinase δ (O00329 whole entry): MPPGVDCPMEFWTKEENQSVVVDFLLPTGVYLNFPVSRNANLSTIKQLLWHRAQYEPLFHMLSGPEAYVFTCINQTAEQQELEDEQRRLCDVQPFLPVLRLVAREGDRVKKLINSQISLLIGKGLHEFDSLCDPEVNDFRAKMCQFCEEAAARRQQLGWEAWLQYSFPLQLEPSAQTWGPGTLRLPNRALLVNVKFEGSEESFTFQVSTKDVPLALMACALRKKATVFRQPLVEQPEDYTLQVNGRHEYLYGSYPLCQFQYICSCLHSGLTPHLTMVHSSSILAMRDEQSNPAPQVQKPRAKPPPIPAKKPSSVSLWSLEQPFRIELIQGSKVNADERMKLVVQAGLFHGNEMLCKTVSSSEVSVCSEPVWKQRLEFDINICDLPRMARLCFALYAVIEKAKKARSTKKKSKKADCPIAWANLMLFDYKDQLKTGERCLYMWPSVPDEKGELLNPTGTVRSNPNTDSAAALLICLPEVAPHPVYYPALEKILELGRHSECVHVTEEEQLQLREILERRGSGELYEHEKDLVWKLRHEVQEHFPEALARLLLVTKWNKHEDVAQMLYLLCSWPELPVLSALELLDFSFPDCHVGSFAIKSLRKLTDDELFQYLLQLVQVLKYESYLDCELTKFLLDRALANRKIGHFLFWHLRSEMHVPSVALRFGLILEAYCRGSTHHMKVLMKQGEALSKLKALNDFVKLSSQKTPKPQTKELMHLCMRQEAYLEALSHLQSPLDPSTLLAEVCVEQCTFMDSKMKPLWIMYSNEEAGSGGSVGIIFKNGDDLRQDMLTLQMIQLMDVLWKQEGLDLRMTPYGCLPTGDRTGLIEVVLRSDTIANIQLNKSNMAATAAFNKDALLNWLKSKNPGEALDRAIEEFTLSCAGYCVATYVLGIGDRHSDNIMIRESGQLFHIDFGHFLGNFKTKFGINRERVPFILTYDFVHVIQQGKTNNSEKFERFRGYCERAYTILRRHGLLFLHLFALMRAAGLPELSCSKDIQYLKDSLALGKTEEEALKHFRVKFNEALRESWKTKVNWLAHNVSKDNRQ
Sequence of recombinant PI3 kinase δ (P27986 whole entry partner): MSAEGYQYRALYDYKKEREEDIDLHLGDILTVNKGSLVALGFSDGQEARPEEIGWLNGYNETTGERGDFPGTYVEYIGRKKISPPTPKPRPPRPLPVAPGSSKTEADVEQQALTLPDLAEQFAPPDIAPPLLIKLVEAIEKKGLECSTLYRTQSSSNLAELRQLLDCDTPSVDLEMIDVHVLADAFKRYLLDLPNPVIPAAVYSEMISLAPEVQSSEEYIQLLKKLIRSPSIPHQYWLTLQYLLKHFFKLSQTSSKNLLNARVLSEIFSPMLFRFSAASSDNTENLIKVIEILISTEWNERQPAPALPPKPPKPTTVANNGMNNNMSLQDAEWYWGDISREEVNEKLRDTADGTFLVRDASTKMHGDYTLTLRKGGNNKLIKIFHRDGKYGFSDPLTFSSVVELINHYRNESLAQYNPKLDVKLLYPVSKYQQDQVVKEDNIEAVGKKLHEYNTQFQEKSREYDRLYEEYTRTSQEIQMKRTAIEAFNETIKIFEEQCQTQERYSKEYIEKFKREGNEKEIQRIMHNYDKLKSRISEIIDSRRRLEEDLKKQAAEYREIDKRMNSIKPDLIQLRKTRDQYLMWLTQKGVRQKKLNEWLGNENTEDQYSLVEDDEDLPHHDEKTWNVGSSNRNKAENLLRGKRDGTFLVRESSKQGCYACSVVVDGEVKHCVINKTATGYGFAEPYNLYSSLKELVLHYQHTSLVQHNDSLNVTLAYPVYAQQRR
Sequence of recombinant PI3 kinase α (P42336 whole entry): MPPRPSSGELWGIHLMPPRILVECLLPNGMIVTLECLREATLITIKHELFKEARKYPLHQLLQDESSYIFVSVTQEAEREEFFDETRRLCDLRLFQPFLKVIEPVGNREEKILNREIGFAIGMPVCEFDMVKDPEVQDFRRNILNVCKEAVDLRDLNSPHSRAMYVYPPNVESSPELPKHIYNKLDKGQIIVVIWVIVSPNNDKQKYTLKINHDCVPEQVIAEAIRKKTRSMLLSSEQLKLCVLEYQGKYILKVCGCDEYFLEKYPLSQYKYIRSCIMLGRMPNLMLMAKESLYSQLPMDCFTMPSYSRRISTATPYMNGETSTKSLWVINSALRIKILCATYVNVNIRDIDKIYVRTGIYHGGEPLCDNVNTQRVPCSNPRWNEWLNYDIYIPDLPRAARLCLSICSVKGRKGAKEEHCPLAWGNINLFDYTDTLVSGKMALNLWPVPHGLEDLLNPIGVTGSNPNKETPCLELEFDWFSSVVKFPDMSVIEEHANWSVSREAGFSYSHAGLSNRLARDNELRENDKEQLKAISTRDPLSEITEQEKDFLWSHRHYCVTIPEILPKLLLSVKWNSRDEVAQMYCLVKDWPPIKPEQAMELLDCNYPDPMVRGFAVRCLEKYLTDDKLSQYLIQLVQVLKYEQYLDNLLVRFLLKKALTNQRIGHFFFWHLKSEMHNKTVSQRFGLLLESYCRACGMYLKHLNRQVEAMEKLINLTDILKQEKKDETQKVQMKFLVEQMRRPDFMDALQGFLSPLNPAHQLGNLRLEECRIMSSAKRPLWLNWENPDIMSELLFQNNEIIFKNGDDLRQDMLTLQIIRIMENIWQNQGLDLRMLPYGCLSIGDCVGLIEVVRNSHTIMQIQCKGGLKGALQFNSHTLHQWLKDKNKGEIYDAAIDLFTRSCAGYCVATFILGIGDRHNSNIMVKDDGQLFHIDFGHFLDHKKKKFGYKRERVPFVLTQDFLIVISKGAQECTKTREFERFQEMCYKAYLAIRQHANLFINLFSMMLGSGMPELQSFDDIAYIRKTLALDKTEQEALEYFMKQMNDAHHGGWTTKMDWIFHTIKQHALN
Sequence of recombinant PI3 kinase α (P27986 whole entry partner): as the sequence (P27986 whole entry partner) above
Sequence of recombinant PI3 kinase γ (P48736 whole entry): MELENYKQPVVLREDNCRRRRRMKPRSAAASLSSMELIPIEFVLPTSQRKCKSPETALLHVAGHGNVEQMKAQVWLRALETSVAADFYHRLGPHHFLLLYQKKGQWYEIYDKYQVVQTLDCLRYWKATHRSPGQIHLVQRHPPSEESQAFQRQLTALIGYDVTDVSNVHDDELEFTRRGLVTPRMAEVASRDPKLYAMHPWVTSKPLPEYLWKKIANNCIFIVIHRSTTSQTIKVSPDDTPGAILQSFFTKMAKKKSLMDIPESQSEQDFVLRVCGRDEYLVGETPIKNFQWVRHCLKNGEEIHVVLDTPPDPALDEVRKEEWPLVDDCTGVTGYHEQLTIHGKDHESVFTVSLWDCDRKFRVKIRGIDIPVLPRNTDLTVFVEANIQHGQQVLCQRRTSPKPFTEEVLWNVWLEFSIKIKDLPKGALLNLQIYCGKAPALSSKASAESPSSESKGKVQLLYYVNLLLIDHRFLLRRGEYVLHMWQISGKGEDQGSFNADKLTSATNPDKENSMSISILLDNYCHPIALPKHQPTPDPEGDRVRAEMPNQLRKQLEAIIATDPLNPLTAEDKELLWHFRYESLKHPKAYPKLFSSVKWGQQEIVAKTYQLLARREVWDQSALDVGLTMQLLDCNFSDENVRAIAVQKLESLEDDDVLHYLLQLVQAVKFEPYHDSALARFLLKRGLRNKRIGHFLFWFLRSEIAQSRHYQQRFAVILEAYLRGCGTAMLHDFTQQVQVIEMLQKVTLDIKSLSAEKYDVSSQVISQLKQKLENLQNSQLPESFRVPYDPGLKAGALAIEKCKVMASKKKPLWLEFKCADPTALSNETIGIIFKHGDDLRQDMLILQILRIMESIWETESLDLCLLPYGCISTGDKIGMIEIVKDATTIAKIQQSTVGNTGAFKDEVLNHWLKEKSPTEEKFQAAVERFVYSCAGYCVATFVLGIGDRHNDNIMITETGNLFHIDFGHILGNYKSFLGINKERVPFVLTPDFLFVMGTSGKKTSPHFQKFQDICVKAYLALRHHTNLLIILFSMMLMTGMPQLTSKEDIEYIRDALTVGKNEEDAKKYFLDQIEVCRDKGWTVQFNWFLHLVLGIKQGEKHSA

On to `COc1cc(-c2nn(Cc3nc4cccc(C#CCCCC(=O)N5CCOCC5)c4c(=O)n3Cc3ccccc3Cl)c3ncnc(N)c23)ccc1O` [Example 95, 2-((4-Amino-3-(4-hydroxy-3-methoxyphenyl)-1H-pyrazolo[3,4-d]pyrimidin-1-yl)methyl)-3-(2-chlorobenzyl)-5-(6-morpholino-6-oxohex-1-ynyl)quinazolin-4(3H)-one], for which the IC50 at recombinant PI3 kinase α is 50 to 1000 nM; on recombinant PI3 kinase γ it was less than 50 nM; on recombinant PI3 kinase δ, less than 50 nM; in data set [1] it was less than 10 nM. Besides, the “Cell Viability MTT Assay in D-U937 cells at 4 hr” value in data set [2] is on record as “− (− <30%)”. Further, the “Cell Viability MTT Assay in D-U937 cells at 24 hr” value in data set [2] is given as “− (− <30%)”.

Take `CN(C)CCNC(=O)CCCC#Cc1cccc2nc(Cn3nc(-c4ccc(O)cc4)c4c(N)ncnc43)n(Cc3ccccc3Cl)c(=O)c12` [Example 78, 6-(2-((4-Amino-3-(4-hydroxyphenyl)-1H-pyrazolo[3,4-d]pyrimidin-1-yl)methyl)-3-(2-chlorobenzyl)-4-oxo-3,4-dihydroquinazolin-5-yl)-N-(2-(dimethylamino)ethyl) hex-5-ynamide]: the IC50 on recombinant PI3 kinase α is 50 to 1000 nM; on recombinant PI3 kinase γ it was less than 50 nM; on recombinant PI3 kinase δ it was less than 50 nM; in data set [1], less than 10 nM. In addition, the “Cell Viability MTT Assay in D-U937 cells at 4 hr” value in data set [2] is on record as “− (− <30%)”. Also, in data set [2], the “Cell Viability MTT Assay in D-U937 cells at 24 hr” value is on record as “− (− <30%)”.

For `C#Cc1cccc2nc(Cn3nc(-c4ccc(O)cc4)c4c(N)ncnc43)n(Cc3ccc(Cl)c(Cl)c3)c(=O)c12` [Example 43, 2-((4-Amino-3-(4-hydroxyphenyl)-1H-pyrazolo[3,4-d]pyrimidin-1-yl)methyl)-3-(3,4-dichlorobenzyl)-5-ethynylquinazolin-4(3H)-one], the half-maximal inhibitory concentration (IC50) is 50 to 1000 nM on recombinant PI3 kinase α, 50 to 1000 nM on recombinant PI3 kinase γ, less than 50 nM on recombinant PI3 kinase δ and less than 10 nM in data set [1]. In addition, the “Cell Viability MTT Assay in D-U937 cells at 4 hr” value in data set [2] is on record as “− (− <30%)”. Further, the “Cell Viability MTT Assay in D-U937 cells at 24 hr” value in data set [2] was “− (− <30%)”.

Turning to `CN1CCN(CCN(C)C(=O)CCCC#Cc2cccc3nc(Cn4nc(-c5ccc(O)cc5)c5c(N)ncnc54)n(Cc4ccccc4Cl)c(=O)c23)CC1` [Example 85, 6-(2-((4-Amino-3-(4-hydroxyphenyl)-1H-pyrazolo[3,4-d]pyrimidin-1-yl)methyl)-3-(2-chlorobenzyl)-4-oxo-3,4-dihydroquinazolin-5-yl)-N-methyl-N-(2-(4-methylpiperazin-1-yl)ethyl)hex-5-ynamide], the figures for the IC50 (on recombinant PI3 kinase δ; in data set [1]) were less than 50 nM and less than 10 nM, respectively. Also, the “Cell Viability MTT Assay in D-U937 cells at 4 hr” value in data set [2] was “− (− <30%)”. Besides, the “Cell Viability MTT Assay in D-U937 cells at 24 hr” value in data set [2] is “− (− <30%)”.

Consider `Nc1ncnc2c1c(-c1ccc(O)cc1)nn2Cc1nc2cccc(C#CCCCC(=O)NC3CCCC3)c2c(=O)n1Cc1ccccc1Cl` [Example 74, 6-(2-((4-Amino-3-(4-hydroxyphenyl)-1H-pyrazolo[3,4-d]pyrimidin-1-yl)methyl)-3-(2-chlorobenzyl)-4-oxo-3,4-dihydroquinazolin-5-yl)-N-cyclopentylhex-5-ynamide], for which the IC50 at recombinant PI3 kinase δ is less than 50 nM. In data set [2], the “Cell Viability MTT Assay in D-U937 cells at 4 hr” value is given as “− (− <30%)” and the “Cell Viability MTT Assay in D-U937 cells at 24 hr” value is “− (− <30%)”.

For the molecule `CC(C)NC(=O)CCCC#Cc1cccc2nc(Cn3nc(-c4cccc(O)c4)c4c(N)ncnc43)n(Cc3ccccc3Cl)c(=O)c12` [Example 87, 6-(2-((4-Amino-3-(3-hydroxyphenyl)-1H-pyrazolo[3,4-d]pyrimidin-1-yl)methyl)-3-(2-chlorobenzyl)-4-oxo-3,4-dihydroquinazolin-5-yl)-N-isopropylhex-5-ynamide], the IC50 at recombinant PI3 kinase δ was less than 50 nM; in data set [1], less than 10 nM. Moreover, the “Cell Viability MTT Assay in D-U937 cells at 4 hr” value in data set [2] is recorded as “− (− <30%)”. In addition, the “Cell Viability MTT Assay in D-U937 cells at 24 hr” value in data set [2] is listed as “− (− <30%)”.

For `CC(=O)NCC(=O)NCC#Cc1cccc2nc(Cn3nc(-c4cccc(O)c4)c4c(N)ncnc43)n(Cc3ccccc3Cl)c(=O)c12` [Example 61, 2-Acetamido-N-(3-(2-((4-amino-3-(3-hydroxyphenyl)-1H-pyrazolo[3,4-d]pyrimidin-1-yl)methyl)-3-(2-chlorobenzyl)-4-oxo-3,4-dihydroquinazolin-5-yl)prop-2-yn-1-yl)acetamide], the half-maximal inhibitory concentration (IC50) in data set [1] is less than 10 nM. In data set [2], the “Cell Viability MTT Assay in D-U937 cells at 4 hr” value is “− (− <30%)” and the “Cell Viability MTT Assay in D-U937 cells at 24 hr” value was “− (− <30%)”.

For `Cc1cnc(Cn2c(Cn3nc(-c4cccc(O)c4)c4c(N)ncnc43)nc3cccc(C#CCCCC(=O)N4CCOCC4)c3c2=O)cn1` [Example 57], in data set [1], the IC50 is less than 10 nM. In addition, in data set [2], the “Cell Viability MTT Assay in D-U937 cells at 4 hr” value is “− (− <30%)” and the “Cell Viability MTT Assay in D-U937 cells at 24 hr” value was “− (− <30%)”.

In the case of `Nc1ncnc2c1c(-c1cccc(O)c1)nn2Cc1nc2cccc(C#CCCCC(=O)Nc3ccncc3)c2c(=O)n1Cc1ccccc1Cl` [Example 80, 6-(2-((4-Amino-3-(3-hydroxyphenyl)-1H-pyrazolo[3,4-d]pyrimidin-1-yl)methyl)-3-(2-chlorobenzyl)-4-oxo-3,4-dihydroquinazolin-5-yl)-N-(pyridin-4-yl)hex-5-ynamide], the IC50 on recombinant PI3 kinase δ is less than 50 nM. Besides, the IC50 in data set [1] lay within 10 to 1000 nM. Besides, in data set [2], the “Cell Viability MTT Assay in D-U937 cells at 4 hr” value is recorded as “− (− <30%)” and the “Cell Viability MTT Assay in D-U937 cells at 24 hr” value is on record as “− (− <30%)”.

On to `CN1CCCN(C(=O)CCCC#Cc2cccc3nc(Cn4nc(-c5cccc(O)c5)c5c(N)ncnc54)n(Cc4ccccc4Cl)c(=O)c23)CC1` [Example 94, 2-((4-Amino-3-(3-hydroxyphenyl)-1H-pyrazolo[3,4-d]pyrimidin-1-yl)methyl)-3-(2-chlorobenzyl)-5-(6-(4-methyl-1,4-diazepan-1-yl)-6-oxohex-1-ynyl)quinazolin-4(3H)-one], for which the half-inhibitory concentration (IC50) on recombinant PI3 kinase δ is 50 to 1000 nM. For the same molecule, the half-maximal inhibitory concentration (IC50) in data set [1] was in the range of 10 to 1000 nM. For the same molecule, in data set [2], the “Cell Viability MTT Assay in D-U937 cells at 4 hr” value is reported as “− (− <30%)” and the “Cell Viability MTT Assay in D-U937 cells at 24 hr” value is reported as “− (− <30%)”.

Consider `COCCOCCOCC#Cc1cccc2nc(Cn3nc(-c4cccc(O)c4)c4c(N)ncnc43)n(Cc3ccccc3Cl)c(=O)c12` [Example 2, 2-((4-Amino-3-(3-hydroxyphenyl)-1H-pyrazolo[3,4-d]pyrimidin-1-yl)methyl)-3-(2-chlorobenzyl)-5-(3-(2-(2-methoxyethoxy)ethoxy)prop-1-yn-1-yl)quinazolin-4(3H)-one], for which the IC50 at recombinant PI3 kinase α is greater than 1000 nM. For the same molecule, in data set [1], the IC50 is less than 10 nM. Besides, in data set [2], the “Cell Viability MTT Assay in D-U937 cells at 4 hr” value is “− (− <30%)” and the “Cell Viability MTT Assay in D-U937 cells at 24 hr” value is given as “− (− <30%)”.

Take `CN1CCN(CCNC(=O)CCCC#Cc2cccc3nc(Cn4nc(-c5ccc(O)cc5)c5c(N)ncnc54)n(Cc4ccccc4Cl)c(=O)c23)CC1` [Example 84, 6-(2-((4-Amino-3-(4-hydroxyphenyl)-1H-pyrazolo[3,4-d]pyrimidin-1-yl)methyl)-3-(2-chlorobenzyl)-4-oxo-3,4-dihydroquinazolin-5-yl)-N-(2-(4-methylpiperazin-1-yl)ethyl)hex-5-ynamide]: the IC50 on recombinant PI3 kinase δ was less than 50 nM. The IC50 in data set [1] was less than 10 nM. Besides, in data set [2], the “Cell Viability MTT Assay in D-U937 cells at 4 hr” value is on record as “− (− <30%)” and the “Cell Viability MTT Assay in D-U937 cells at 24 hr” value is “− (− <30%)”.

On to `CN(C)C1CCN(C(=O)CCCC#Cc2cccc3nc(Cn4nc(-c5cccc(O)c5)c5c(N)ncnc54)n(Cc4ccccc4Cl)c(=O)c23)C1` (stereo not shown) [Example 92, 2-((4-Amino-3-(3-hydroxyphenyl)-1H-pyrazolo[3,4-d]pyrimidin-1-yl)methyl)-3-(2-chlorobenzyl)-5-(6-(3-(dimethylamino)pyrrolidin-1-yl)-6-oxohex-1-ynyl) quinazolin-4(3H)-one], for which the IC50 on recombinant PI3 kinase δ is less than 50 nM. Moreover, the half-maximal inhibitory concentration (IC50) in data set [1] was 10 to 1000 nM. Also, in data set [2], the “Cell Viability MTT Assay in D-U937 cells at 4 hr” value is listed as “− (− <30%)” and the “Cell Viability MTT Assay in D-U937 cells at 24 hr” value is given as “− (− <30%)”.
